Active and inactive are the calls of the source. No cut-off for these calls is given here.
Experiments:
[1] = Toxicity in ICR mouse assessed as animal death at 5000 mg/kg, po administered via gavage for 2 weeks; type: organism-based; settings: in vivo, 336 h
[2] = Toxicity in ICR mouse assessed as acute side effects at 500 to 5000 mg/kg, po administered via gavage for 2 weeks; type: organism-based; settings: in vivo, 336 h, dose 500-5000 mg/kg
[3] = Toxicity in ICR mouse assessed as reduction in heart weight at 500 to 5000 mg/kg, po administered via gavage for 2 weeks; type: organism-based; settings: in vivo, 336 h, dose 500-5000 mg/kg
[4] = Toxicity in ICR mouse assessed as reduction in spleen weight at 500 to 5000 mg/kg, po administered via gavage for 2 weeks; type: organism-based; settings: in vivo, 336 h, dose 500-5000 mg/kg
[5] = Toxicity in ICR mouse assessed as reduction in lungs weight at 500 to 5000 mg/kg, po administered via gavage for 2 weeks; type: organism-based; settings: in vivo, 336 h, dose 500-5000 mg/kg
[6] = Toxicity in ICR mouse assessed as reduction in kidney weight at 500 to 5000 mg/kg, po administered via gavage for 2 weeks; type: organism-based; settings: in vivo, 336 h, dose 500-5000 mg/kg
[7] = Cmax in ICR mouse at 5 mg/kg, iv; type: ADME, organism-based; parameters: dose 5 mg/kg, route iv; settings: in vivo
[8] = AUC (0 to infinity) in ICR mouse at 5 mg/kg, iv; type: ADME, organism-based; parameters: dose 5 mg/kg, route iv; settings: in vivo
[9] = tested on: MC38-hPD-L1; test: Antitumor activity against humanized mouse MC38-hPD-L1 cells implanted in hPD-1 knockin C57BL/6 mouse assessed as tumor growth inhibition at 10 mg/kg, ip administered for 12 days starting from day 7 post tumor implantation and measured every 2 days relative to control; type: functional; settings: MC38-hPD-L1, 288 h, time 12 day, read-out: TGI
[10] = tested on: MC38-hPD-L1; test: Antitumor activity against humanized mouse MC38-hPD-L1 cells implanted in hPD-1 knockin C57BL/6 mouse assessed as reduction in tumor cell proliferation by measuring reduction in Ki67 expression at 10 to 25 mg/kg, ip administered for 12 days starting from day 7 post tumor implantation by immunohistochemistry analysis; type: functional, organism-based; settings: dose 10-25 mg/kg, time 12.0 day
[11] = Antitumor activity against humanized mouse LLC-hPD-L1 cells implanted in hPD-1 knockin C57BL/6 mouse assessed as tumor growth inhibition at 10 mg/kg, ip administered for 12 days starting from day 7 post tumor implantation and measured every 2 days relative to control; type: functional; settings: LLC-hPD-L1, 288 h, time 12 day, read-out: TGI
[12] = Antitumor activity against humanized mouse LLC-hPD-L1 cells implanted in hPD-1 knockin C57BL/6 mouse assessed as tumor growth inhibition at 25 mg/kg, ip administered for 12 days starting from day 7 post tumor implantation and measured every 2 days relative to control; type: functional; settings: LLC-hPD-L1, 288 h, time 12 day, read-out: TGI
[13] = Toxicity in hPD-1 knockin C57BL/6 mouse implanted with humanized mouse LLC-hPD-L1 cells assessed as reduction in body weight at 10 to 25 mg/kg, ip administered for 12 days starting from day 7 post tumor implantation and measured every 3 to 4 days; type: organism-based; settings: in vivo, 288 h, dose 10-25 mg/kg, time 12 day
[14] = tested on: MC38-hPD-L1; test: Antitumor activity against humanized mouse MC38-hPD-L1 cells implanted in hPD-1 knockin C57BL/6 mouse assessed as increase in CD8-positive T cells at 10 to 25 mg/kg, ip administered for 12 days starting from day 7 post tumor implantation by flow cytometry analysis; type: functional, organism-based; settings: dose 10-25 mg/kg, time 12.0 day
[15] = tested on: MC38-hPD-L1; test: Antitumor activity against humanized mouse MC38-hPD-L1 cells implanted in hPD-1 knockin C57BL/6 mouse assessed as increase in CD69-positive CD137-positive T cells at 10 to 25 mg/kg, ip administered for 12 days starting from day 7 post tumor implantation by flow cytometry analysis; type: functional, organism-based; settings: dose 10-25 mg/kg, time 12.0 day
[16] = tested on: MC38-hPD-L1; test: Antitumor activity against humanized mouse MC38-hPD-L1 cells implanted in hPD-1 knockin C57BL/6 mouse assessed as increase in IFN-gamma level at 10 to 25 mg/kg, ip administered for 12 days starting from day 7 post tumor implantation by flow cytometry analysis; type: functional, organism-based; settings: dose 10-25 mg/kg, time 12.0 day
[17] = tested on: MC38-hPD-L1; test: Antitumor activity against humanized mouse MC38-hPD-L1 cells implanted in hPD-1 knockin C57BL/6 mouse assessed as reduction in MDSC cells at 10 to 25 mg/kg, ip administered for 12 days starting from day 7 post tumor implantation by flow cytometry analysis; type: functional, organism-based; settings: dose 10-25 mg/kg, time 12.0 day
[18] = tested on: MC38-hPD-L1; test: Antitumor activity against humanized mouse MC38-hPD-L1 cells implanted in hPD-1 knockin C57BL/6 mouse assessed as reduction in Treg cells at 10 to 25 mg/kg, ip administered for 12 days starting from day 7 post tumor implantation by flow cytometry analysis; type: functional, organism-based; settings: dose 10-25 mg/kg, time 12.0 day
[19] = tested on: LLC-hPD-L1; test: Antitumor activity against humanized mouse LLC-hPD-L1 cells implanted in hPD-1 knockin C57BL/6 mouse assessed as increase in CD8-positive T cells at 10 to 25 mg/kg, ip administered for 12 days starting from day 7 post tumor implantation by flow cytometry analysis; type: functional, organism-based; settings: dose 10-25 mg/kg, time 12.0 day
[20] = tested on: LLC-hPD-L1; test: Antitumor activity against humanized mouse LLC-hPD-L1 cells implanted in hPD-1 knockin C57BL/6 mouse assessed as increase in CD69-positive CD137-positive T cells at 10 to 25 mg/kg, ip administered for 12 days starting from day 7 post tumor implantation by flow cytometry analysis; type: functional, organism-based; settings: dose 10-25 mg/kg, time 12.0 day
[21] = tested on: LLC-hPD-L1; test: Antitumor activity against humanized mouse LLC-hPD-L1 cells implanted in hPD-1 knockin C57BL/6 mouse assessed as macrophage polarization into M1 phenotype at 25 mg/kg, ip administered for 12 days starting from day 7 post tumor implantation by flow cytometry analysis; type: functional, organism-based; settings: time 12.0 day
[22] = tested on: A549; test: Cytotoxicity against human A549 cells assessed as reduction in tumor proliferation at 10 to 20 uM incubated for 48 hrs by xCELLigence RTCA system analysis; type: functional, cell-based; settings: dose 10-20 µM
[23] = species: Homo sapiens; test: Internalization of PD-L1 in cytoplasm of human RKO cells assessed as increase in PD-L1 concentration in cytoplasm at 1 micromol/L incubated for 6 hrs by fluorescence microscopy; type: functional, cell-based; settings: dose 1.0 µmol/L
[24] = species: Homo sapiens; test: Internalization of PD-L1 in cytoplasm of human RKO cells assessed as decrease in PD-L1 concentration in cell membrane at 1 micromol/L incubated for 6 hrs by fluorescence microscopy; type: functional, cell-based; settings: dose 1.0 µmol/L
[25] = species: Homo sapiens; test: Internalization of PD-L1 in cytoplasm of human RKO cells transfected with DsRed and human calreticulin assessed as colocalization of PD-L1 with endoplasmic reticulum-resident calreticulin at 1 micromol/L incubated for 12 hrs by fluorescence microscopy; type: functional, cell-based; settings: dose 1.0 µmol/L

With `COc1cc2c(cc1CN[C@@H](CO)C(=O)O)C(=O)N(c1cccc(-c3ccccc3)c1C)C2=O` the Activity [1] was “Non-Toxic”, the Activity [2] was “Non-Toxic” and the Activity [3] was “Non-Toxic”. For the same compound, the Activity [4] was “Non-Toxic”, the Activity [5] was “Non-Toxic” and the Activity [6] was “Non-Toxic”. The Cmax [7] was 6290 ng/mL, the AUC(0-inf) [8] was 3570 ng·h/mL and the inhibition in vivo at 10 mg/kg [9] was 65.9%. For the same compound, the Activity [10] was “Active”, the inhibition in vivo at 10 mg/kg [11] was 57.2% and the inhibition in vivo at 25 mg/kg [12] was 81.4%. The Activity [13] was “Non-Toxic”, the Activity [14] was “Active” and the Activity [15] was “Active”. For the same compound, the Activity [16] was “Active”, the Activity [17] was “Active” and the Activity [18] was “Active”. The Activity [19] was “Active”, the Activity [20] was “Active” and the Activity [21] was “Active”. For the same compound, the Activity [22] was “inactive”, the Activity [23] was “Active” and the Activity [24] was “Active”. The Activity [25] was “Active”.

From ChEMBL document CHEMBL5316293, “Novel Small-Molecule PD-L1 Inhibitor Induces PD-L1 Internalization and Optimizes the Immune Microenvironment” (J Med Chem, 2023)
